Paper PMC10054758, “A Structural-Reporter Group to Determine the Core Conformation of Sialyl Lewis^x Mimetics” (Molecules, 2023)
Read-outs that look alike come from different tables or passages of the source.

Assays:
[1] = molecular target: T1, E-selectin (Homo sapiens, UniProt P16581); assay: E-selectin affinity, literature data; assay type: binding; details: for ΔG (Gibbs Free Energy): calculated ΔG = -RT lnKD from literature KD
T1 construct: mixed 1:1 with a solution of 0.2 μM labeled E-SelectinSCR2; made in house
T1 sequence (P16581 22-301 limits assumed): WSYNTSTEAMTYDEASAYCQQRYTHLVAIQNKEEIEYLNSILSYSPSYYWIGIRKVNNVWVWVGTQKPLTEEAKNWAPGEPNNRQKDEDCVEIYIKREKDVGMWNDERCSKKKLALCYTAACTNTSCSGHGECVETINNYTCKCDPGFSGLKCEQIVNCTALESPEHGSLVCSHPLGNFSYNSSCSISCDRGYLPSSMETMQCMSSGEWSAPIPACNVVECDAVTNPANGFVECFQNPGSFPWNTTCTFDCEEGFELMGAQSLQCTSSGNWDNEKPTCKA

[2] = molecular target: T1, E-selectin; assay: Microscale thermophoresis (MST) affinity measurement; assay type: binding; details: for Kd: MST, 25 °C, labeled E-selectinSCR2
Protocol: E-selectin production (cloning, transfection, expression, and purification) and labeling were previously described for the E-selectinSCR6-IgGFc construct and for the E-selectinSCR2 construct.
E-selectinLEC2 was labeled using the amine reactive protein labeling kit BLUE-NHS as described in the Supporting Information. Buffer exchange and labeling were performed according to the manufacturer’s protocol. […] The labeled protein was dialyzed over night against assay buffer (10 mM HEPES pH 7.4, 150 mM NaCl, 1 mM CaCl2) using Slide-A-Lyzer dialysis cassettes (10 kDa MWCO). Protein concentration was determined by HPLC-UV against a BSA standard.
Microscale thermophoresis (MST) experiments were carried out at 25 °C with 100% LED power, 50% laser power, a laser on time of 30 s, and a laser off time of 5 sec using standard treated capillaries. Ligands were dissolved in assay buffer supplemented with 0.05% v/v Tween20 and titrated 1:1 for a total of 16 dilution steps. The dilution series of ligand was mixed 1:1 with a solution of 0.2 μM labeled E-SelectinSCR2 and incubated for 10 min at room temperature before measurement. Datapoints were normalized using the bound and unbound borders achieved by NanoTemper Analysis 1.2.205 software (NanoTemper Technologies GmbH, Munich, Germany) and analyzed/illustrated with GraphPad Prism 5.0 (GraphPad Software, La Jolla, CA, USA). The measurements were globally fitted using Equation (1) for single site binding. (1) PL=(CP+CL+KD) - (CP+CL+KD) - 4CPCL/2CP where [PL] is the protein–ligand complex concentration and KD is the dissociation constant. CP represents the total concentration of protein and CL the total concentration of ligand.

[3] = molecular target: T1, E-selectin; details: literature data; cited from earlier work
[4] = molecular target: T1, E-selectin; design: method as in PMID 22782926; details: binding to E-selectin; cited from earlier work

| Kd [2] [µM] | SMILES | also measured |
| --- | --- | --- |
| – | C[C@@H]1O[C@@H](O[C@@H]2CCCC[C@H]2O[C@@H]2O[C@H](CO)[C@H](O)[C@H](O[C@@H](CC3CCCCC3)C(=O)O)[C@H]2O)[C@@H](O)[C@H](O)[C@@H]1O [2a] | improvement of affinity ([1]; GlcNAc replaced by (R,R)-cyclohexane-1,2-diol (22→2a)): five-fold; ΔG (Gibbs Free Energy) [1]: -24.06 kJ/mol; improvement of affinity ([1]; compared to 21): 80 fold; ΔΔG ([1]; relative to 21 (ΔΔG21→2a)): 10.89 kJ/mol |
| 6.8 | CC(C)[C@H]1CCC[C@@H](O[C@@H]2O[C@H](CO)[C@H](O)[C@H](O[C@@H](CC3CCCCC3)C(=O)O)[C@H]2O)[C@@H]1O[C@@H]1O[C@@H](C)[C@@H](O)[C@@H](O)[C@@H]1O [2d] | – |
| 18 | C[C@@H]1O[C@@H](O[C@@H]2[C@@H](Cc3ccccc3)CCC[C@H]2O[C@@H]2O[C@H](CO)[C@H](O)[C@H](O[C@@H](CC3CCCCC3)C(=O)O)[C@H]2O)[C@@H](O)[C@H](O)[C@@H]1O [2e] | – |
| 14 | C[C@@H]1O[C@@H](O[C@@H]2[C@@H](CC3CCCCC3)CCC[C@H]2O[C@@H]2O[C@H](CO)[C@H](O)[C@H](O[C@@H](CC3CCCCC3)C(=O)O)[C@H]2O)[C@@H](O)[C@H](O)[C@@H]1O [2f] | – |
| 8.8 | C[C@@H]1O[C@@H](O[C@@H]2[C@@H](c3ccccc3)CCC[C@H]2O[C@@H]2O[C@H](CO)[C@H](O)[C@H](O[C@@H](CC3CCCCC3)C(=O)O)[C@H]2O)[C@@H](O)[C@H](O)[C@@H]1O [2g] | – |
| 51 | C[C@@H]1O[C@@H](O[C@H]2[C@H](O[C@@H]3O[C@H](CO)[C@H](O)[C@H](O[C@@H](CC4CCCCC4)C(=O)O)[C@H]3O)CCC[C@@H]2C(C)(C)C)[C@@H](O)[C@H](O)[C@@H]1O [2h] | – |
| 5.4 | CCCC[C@H]1CCC[C@@H](O[C@@H]2O[C@H](CO)[C@H](O)[C@H](O[C@@H](CC3CCCCC3)C(=O)O)[C@H]2O)[C@@H]1O[C@@H]1O[C@@H](C)[C@@H](O)[C@@H](O)[C@@H]1O [2i] | – |
| 4.3 | CCCCCC[C@H]1CCC[C@@H](O[C@@H]2O[C@H](CO)[C@H](O)[C@H](O[C@@H](CC3CCCCC3)C(=O)O)[C@H]2O)[C@@H]1O[C@@H]1O[C@@H](C)[C@@H](O)[C@@H](O)[C@@H]1O [2j] | ΔG (Gibbs Free Energy) ([2]; calculated ΔG = -RT lnKD from MST KD): -30.63 kJ/mol; ΔΔG ([2]; relative to 2a (ΔΔG2a→2b, ΔΔG2a→2j)): 6.57 kJ/mol |
| 28 | C[C@@H]1O[C@@H](O[C@@H]2[C@@H](CCCc3ccccc3)CCC[C@H]2O[C@@H]2O[C@H](CO)[C@H](O)[C@H](O[C@@H](CC3CCCCC3)C(=O)O)[C@H]2O)[C@@H](O)[C@H](O)[C@@H]1O [2k] | – |
| 31 | COCCOC[C@H]1CCC[C@@H](O[C@@H]2O[C@H](CO)[C@H](O)[C@H](O[C@@H](CC3CCCCC3)C(=O)O)[C@H]2O)[C@@H]1O[C@@H]1O[C@@H](C)[C@@H](O)[C@@H](O)[C@@H]1O [2l] | – |
| 6 | CC(C)C[C@H]1CCC[C@@H](O[C@@H]2O[C@H](CO)[C@H](O)[C@H](O[C@@H](CC3CCCCC3)C(=O)O)[C@H]2O)[C@@H]1O[C@@H]1O[C@@H](C)[C@@H](O)[C@@H](O)[C@@H]1O [2m] | – |
| 9.5 | C[C@@H]1O[C@@H](O[C@@H]2[C@@H](CC(F)(F)F)CCC[C@H]2O[C@@H]2O[C@H](CO)[C@H](O)[C@H](O[C@@H](CC3CCCCC3)C(=O)O)[C@H]2O)[C@@H](O)[C@H](O)[C@@H]1O [2n] | – |
| – | C[C@@H]1O[C@@H](OCCO[C@@H]2O[C@H](CO)[C@H](O)[C@H](O[C@@H](CC3CCCCC3)C(=O)O)[C@H]2O)[C@@H](O)[C@H](O)[C@@H]1O [compound 21, reference compound] | Kd [3]: 4920 µM; ΔG (Gibbs Free Energy) [1]: -13.17 kJ/mol |
| – | CO[C@@H]1O[C@H](CO)[C@@H](O[C@@H]2O[C@H](CO)[C@H](O)[C@H](O[C@@H](CC3CCCCC3)C(=O)O)[C@H]2O)[C@H](O[C@@H]2O[C@@H](C)[C@@H](O)[C@@H](O)[C@@H]2O)[C@H]1NC(C)=O [compound 22] | Kd [3]: 280 µM |
| – | COC1OC(CO)C(OC2OC(CO)C(O)C(OC3(C(=O)O)CC(O)C(NC(C)=O)C(C(O)C(O)CO)O3)C2O)C(OC2OC(C)C(O)C(O)C2O)C1NC(C)=O (stereo not shown) [sLe^x (1), sialyl Lewis^x] | entropy term −TΔS° [4]: 22.6 kJ/mol; Kd [3]: 877 µM |
